Activity calls are given as the source filed them. No cut-off for these calls is given here.
How the values were obtained:
Collagenase 3 [1] = target: T1, Collagenase 3 (Homo sapiens, UniProt P45452); experiment: Inhibition of MMP13 (unknown origin) assessed as reduction in cleavage of colorimetric substrate incubated for 1 hr by colorimetric analysis
[2] = Inhibition of biotinylated Galectin-1/3 (unknown origin) preincubated for 30 mins at room temperature followed by incubation at 37 degC for 1 hr by surface-immobilized glycoprotein asialofetuin based solid phase assay; set-up: species or system Homo sapiens
Homo sapiens [3] = species: Homo sapiens; experiment: Inhibition of biotinylated Galectin-1/3 (unknown origin) preincubated for 30 mins at room temperature followed by incubation at 37 degC for 1 hr by surface-immobilized glycoprotein asialofetuin based solid phase assay relative to lactose; details: time 90.0 min
[4] = target: Galectin-3 (Mus musculus) (UniProt P16110); experiment: Inhibition of biotinylated galectin-3 binding to C57BL/6 mouse kidney cortex at 125 to 500 uM of lactose residue per molecule preincubated for 1 hr followed by incubation with tissue material for overnight by light microsocopy; type: tissue-based; details: dose 125-500 µM
Sequence of Galectin-3 (Mus musculus) (P16110 whole entry): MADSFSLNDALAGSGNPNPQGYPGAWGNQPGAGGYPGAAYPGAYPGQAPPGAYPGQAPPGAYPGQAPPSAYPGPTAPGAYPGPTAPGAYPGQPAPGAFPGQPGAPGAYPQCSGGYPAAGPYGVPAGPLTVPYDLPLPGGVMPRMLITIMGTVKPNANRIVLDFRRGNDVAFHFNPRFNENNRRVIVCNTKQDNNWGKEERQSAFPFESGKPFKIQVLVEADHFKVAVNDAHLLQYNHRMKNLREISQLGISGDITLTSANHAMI

[5] = target: Galectin-3 (Mus musculus) (UniProt P16110); experiment: Inhibition of biotinylated galectin-3 binding to C57BL/6 mouse kidney medulla at 125 to 500 uM of lactose residue per molecule preincubated for 1 hr followed by incubation with tissue material for overnight by light microsocopy; type: tissue-based; details: Renal medulla, dose 125-500 µM
[6] = target: Galectin-1 (Mus musculus) (UniProt P16045); experiment: Inhibition of biotinylated galectin-1 binding to C57BL/6 mouse kidney at 125 to 500 uM of lactose residue per molecule preincubated for 1 hr followed by incubation with tissue material for overnight by light microsocopy; type: tissue-based; details: dose 125-500 µM
Sequence of Galectin-1 (Mus musculus) (P16045 whole entry): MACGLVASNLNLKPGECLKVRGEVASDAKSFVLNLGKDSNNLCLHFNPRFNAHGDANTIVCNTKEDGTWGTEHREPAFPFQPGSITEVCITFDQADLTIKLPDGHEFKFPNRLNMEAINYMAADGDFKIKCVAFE

[7] = target: Galectin-1 (Homo sapiens) (UniProt P09382); experiment: Inhibition of Alexa-Fluor-488 conjugated galectin-1 binding to human osteoarthritic cartilage at 4 mM of sugar preincubated for 1 hr followed by incubation with tissue material for overnight by 2-colour fluorescence microsocopy; type: tissue-based
Sequence of Galectin-1 (Homo sapiens) (P09382 whole entry): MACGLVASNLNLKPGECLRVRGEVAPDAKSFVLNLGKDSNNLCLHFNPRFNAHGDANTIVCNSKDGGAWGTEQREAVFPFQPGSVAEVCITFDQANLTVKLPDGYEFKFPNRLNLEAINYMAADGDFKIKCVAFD

[8] = target: Galectin-3 (Homo sapiens) (UniProt P17931); experiment: Inhibition of Alexa-Fluor-647 conjugated galectin-3 binding to human osteoarthritic cartilage at 4 mM of sugar preincubated for 1 hr followed by incubation with tissue material for overnight by 2-colour fluorescence microsocopy; type: tissue-based
Sequence of Galectin-3 (Homo sapiens) (P17931 whole entry): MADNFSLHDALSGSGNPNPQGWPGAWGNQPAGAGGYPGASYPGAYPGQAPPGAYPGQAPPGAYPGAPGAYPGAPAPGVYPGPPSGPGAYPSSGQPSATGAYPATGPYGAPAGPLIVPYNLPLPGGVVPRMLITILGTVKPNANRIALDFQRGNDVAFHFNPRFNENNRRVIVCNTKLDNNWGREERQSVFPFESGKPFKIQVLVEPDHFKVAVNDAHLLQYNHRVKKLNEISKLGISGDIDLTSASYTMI

Homo sapiens [9] = species: Homo sapiens; experiment: Inhibition of Alexa-Fluor-488 conjugated galectin-1/Alexa-Fluor-647 conjugated galectin-3 binding to human osteoarthritic cartilage at 4 mM of sugar preincubated for 1 hr followed by incubation with tissue material for overnight by 2-colour fluorescence microsocopy; type: tissue-based
Collagenase 3 [10] = target: T1, Collagenase 3; experiment: Inhibition of MMP13 (unknown origin) assessed as reduction in cleavage of colorimetric substrate by measuring remaining activity at 10 nM incubated for 1 hr by colorimetric analysis relative to control
Collagenase 3 [11] = target: T1, Collagenase 3; experiment: Inhibition of MMP13 (unknown origin) assessed as reduction in cleavage of colorimetric substrate by measuring remaining activity at 100 nM incubated for 1 hr by colorimetric analysis relative to control
Collagenase 3 [12] = target: T1, Collagenase 3; experiment: Inhibition of MMP13 (unknown origin) assessed as reduction in cleavage of colorimetric substrate by measuring remaining activity at 1000 nM incubated for 1 hr by colorimetric analysis relative to control
[13] = target: Galectin-1 (Mus musculus) (UniProt P16045); experiment: Inhibition of Alexa-Fluor-488 conjugated galectin-1 binding to C57BL/6 mouse kidney cortex at 2 mM of sugar preincubated for 1 hr followed by incubation with tissue material for overnight by 2-colour fluorescence microsocopy; type: tissue-based
[14] = target: Galectin-1 (Mus musculus) (UniProt P16045); experiment: Inhibition of Alexa-Fluor-488 conjugated galectin-1 binding to C57BL/6 mouse kidney medulla at 2 mM of sugar preincubated for 1 hr followed by incubation with tissue material for overnight by 2-colour fluorescence microsocopy; type: tissue-based; details: Renal medulla
[15] = target: Galectin-3 (Mus musculus) (UniProt P16110); experiment: Inhibition of Alexa-Fluor-647 conjugated galectin-3 binding to C57BL/6 mouse kidney cortex at 2 mM of sugar preincubated for 1 hr followed by incubation with tissue material for overnight by 2-colour fluorescence microsocopy; type: tissue-based
[16] = target: Galectin-3 (Mus musculus) (UniProt P16110); experiment: Inhibition of Alexa-Fluor-647 conjugated galectin-3 binding to C57BL/6 mouse medulla at 2 mM of sugar preincubated for 1 hr followed by incubation with tissue material for overnight by 2-colour fluorescence microsocopy; type: tissue-based; details: Renal medulla
Mus musculus [17] = species: Mus musculus; experiment: Inhibition of Alexa-Fluor-488 conjugated galectin-1/Alexa-Fluor-647 conjugated galectin-3 binding to C57BL/6 mouse kidney cortex at 2 mM of sugar preincubated for 1 hr followed by incubation with tissue material for overnight by 2-colour fluorescence microsocopy; type: tissue-based
Mus musculus [18] = species: Mus musculus; experiment: Inhibition of Alexa-Fluor-488 conjugated galectin-1/Alexa-Fluor-647 conjugated galectin-3 binding to C57BL/6 mouse medulla at 2 mM of sugar preincubated for 1 hr followed by incubation with tissue material for overnight by 2-colour fluorescence microsocopy; type: tissue-based; details: Renal medulla

| IC50 (Collagenase 3 [1]) [µM] | IC50 [2] [µM] | Ratio (Homo sapiens [3]) | inhibition [4] | inhibition [5] | inhibition [6] | inhibition [7] | inhibition [8] | inhibition (Homo sapiens [9]) | Compound | other results |
| --- | --- | --- | --- | --- | --- | --- | --- | --- | --- | --- |
| 0.0052 |  |  |  |  |  |  |  |  | COc1ccc(S(=O)(=O)N(CC(=O)NO)CC(C)C)cc1 |  |
|  | 420 | 2.5 | Active | Active | Active |  |  |  | OC[C@H]1O[C@@H](O[C@H]2[C@H](O)[C@@H](O)[C@H](n3cc(COC[C@@H](OCc4cn([C@@H]5O[C@H](CO)[C@@H](O[C@@H]6O[C@H](CO)[C@H](O)[C@H](O)[C@H]6O)[C@H](O)[C@H]5O)nn4)[C@@H](O)[C@H](O)[C@@H](COCc4cn([C@@H]5O[C@H](CO)[C@@H](O[C@@H]6O[C@H](CO)[C@H](O)[C@H](O)[C@H]6O)[C@H](O)[C@H]5O)nn4)OCc4cn([C@@H]5O[C@H](CO)[C@@H](O[C@@H]6O[C@H](CO)[C@H](O)[C@H](O)[C@H]6O)[C@H](O)[C@H]5O)nn4)nn3)O[C@@H]2CO)[C@H](O)[C@@H](O)[C@H]1O |  |
|  | 220 | 4.9 | Active | Active | Active |  |  |  | OC[C@H]1O[C@@H](O[C@H]2[C@H](O)[C@@H](O)[C@H](n3cc(COC[C@@H](OCc4cn([C@@H]5O[C@H](CO)[C@@H](O[C@@H]6O[C@H](CO)[C@H](O)[C@H](O)[C@H]6O)[C@H](O)[C@H]5O)nn4)[C@@H](OCc4cn([C@@H]5O[C@H](CO)[C@@H](O[C@@H]6O[C@H](CO)[C@H](O)[C@H](O)[C@H]6O)[C@H](O)[C@H]5O)nn4)[C@H](OCc4cn([C@@H]5O[C@H](CO)[C@@H](O[C@@H]6O[C@H](CO)[C@H](O)[C@H](O)[C@H]6O)[C@H](O)[C@H]5O)nn4)[C@@H](COCc4ccccc4)OCc4ccccc4)nn3)O[C@@H]2CO)[C@H](O)[C@@H](O)[C@H]1O |  |
|  |  |  |  |  |  | Active | Active | Active | LACTOSE, ANHYDROUS [listing 1 of 2 here] |  |
|  | 1070 |  |  |  |  |  |  |  | LACTOSE, ANHYDROUS [listing 2 of 2 here] |  |
| 0.0013 | 200 | 5.4 | Active | Active | Active | Active | Active | Active | COc1ccc(S(=O)(=O)N(CCCCCCNC(=O)CCCCC(=O)NCCN(CCC(=O)NCCNC(=O)CCCCC(=O)NCCO[C@@H]2O[C@H](CO)[C@@H](O[C@@H]3O[C@H](CO)[C@H](O)[C@H](O)[C@H]3O)[C@H](O)[C@H]2O)CCC(=O)NCCNC(=O)CCCCC(=O)NCCO[C@@H]2O[C@H](CO)[C@@H](O[C@@H]3O[C@H](CO)[C@H](O)[C@H](O)[C@H]3O)[C@H](O)[C@H]2O)CC(=O)NO)cc1 | Activity (Collagenase 3 [10]): 15.2%; Activity (Collagenase 3 [11]): 3.2%; Activity (Collagenase 3 [12]): 2.7%; inhibition [13]: Active; inhibition [14]: Active; inhibition [15]: Active; inhibition [16]: Active; inhibition (Mus musculus [17]): Active; inhibition (Mus musculus [18]): Active |
